What was measured:
MCF-7 (Homo sapiens) = assay: Antiproliferative activity against human MCF-7 cells after 72 hrs by MTT assay; conditions: MCF-7, 72 h
[1] = Cytotoxicity against human HL60 cells assessed as reduction in cell viability after 72 hrs by MTT assay; format: functional, cell-based; conditions: HL-60, 72 h
[2] = Cytotoxicity against human Bewo cells assessed as reduction in cell viability after 72 hrs by MTT assay; format: functional, cell-based
[3] = Cytotoxicity against human MCF7 cells assessed as reduction in cell viability after 72 hrs by MTT assay; format: functional, cell-based; conditions: MCF7, 72 h
[4] = Solubility of compound in DMSO; format: physicochemical

Row | SMILES | IC50 (MCF-7 (Homo sapiens); read-out: IC50) [µM] | IC50 (MCF-7 (Homo sapiens); read-out: pIC50 (converted)) [µM] | IC50 [1] [µM] | IC50 [2] [µM] | IC50 [3] [µM] | solubility [4]
1 | c1ccc(CN2CCN(c3nnc4nncn4n3)CC2)cc1 | 27.3 | 27.3 |  |  |  | 
2 | O=C(c1ccccc1)N1CCN(c2nnc3nncn3n2)CC1 | 8.38 | 8.38 |  |  |  | 
3 | CCCCCC(=O)N1CCN(c2nnc3nncn3n2)CC1 | 5.26 | 5.26 |  |  |  | 
4 | CCCNc1nnc2nncn2n1 | 19.8 | 19.8 |  |  |  | 
5 | CCC(=O)N1CCN(c2nnc3nncn3n2)CC1 | 14.8 | 14.8 |  |  |  | 
6 | O=C(Cc1ccccc1)N1CCN(c2nnc3nncn3n2)CC1 | 3.08 | 3.08 |  |  |  | 
7 | c1ccc(CCNc2nnc3nncn3n2)cc1 | 1.24 | 1.24 |  |  |  | 
8 | c1nnc2nnc(N3CCCCC3)nn12 | 27.2 | 27.2 |  |  |  | 
9 | c1nnc2nnc(NC3CCCC3)nn12 | 88.2 | 88.1 |  |  |  | 
10 | CCCCNc1nnc2nncn2n1 | 13.7 | 13.7 |  |  |  | 
11 | O=C(c1ccc([N+](=O)[O-])cc1)N1CCN(c2nnc3nncn3n2)CC1 | 4.53 | 4.53 |  |  |  | 
12 | O=C(c1ccc(Cl)cc1)N1CCN(c2nnc3nncn3n2)CC1 | 12.8 | 12.9 |  |  |  | 
13 | CCCCC(=O)N1CCN(c2nnc3nncn3n2)CC1 | 2.76 | 2.75 |  |  |  | 
14 | CC(=O)N1CCN(c2nnc3nncn3n2)CC1 | 13.9 | 13.9 |  |  |  | 
15 | Nc1nnc2nncn2n1 | 46.5 | 46.5 |  |  |  | 
16 | OCCNc1nnc2nncn2n1 | 11.6 | 11.6 |  |  |  | 
17 | CN1CCN(c2nnc3nncn3n2)CC1 | 21.6 | 21.6 |  |  |  | 
18 | CC(C)(C)C(=O)N1CCN(c2nnc3nncn3n2)CC1 | 5.51 | 5.51 |  |  |  | 
19 | Cc1ccc(C(=O)N2CCN(c3nnc4nncn4n3)CC2)cc1 | 15.9 | 15.9 |  |  |  | 
20 | CCCC(=O)N1CCN(c2nnc3nncn3n2)CC1 | 6.91 | 6.92 |  |  |  | 

Row | SMILES | IC50 (MCF-7 (Homo sapiens); read-out: IC50) [µM] | IC50 (MCF-7 (Homo sapiens); read-out: pIC50 (converted)) [µM] | IC50 [1] [µM] | IC50 [2] [µM] | IC50 [3] [µM] | solubility [4]
21 | CC(C)COC(=O)N1CCN(c2nnc3nncn3n2)CC1 | 5.39 | 5.38 |  |  |  | 
22 | c1nnc2nnc(NC3CCCCC3)nn12 | 3.51 | 3.52 |  |  |  | 
23 | O=C(C1CCCCC1)N1CCN(c2nnc3nncn3n2)CC1 | 1.26 | 1.26 |  |  |  | 
24 | Cc1nnc2nnc(N3CCCC3)nn12 |  | 44.9 | 29.7 | 5.36 | 44.8 | 
25 | O=[N+]([O-])c1ccc(-c2nnc3nnc(N4CCCC4)nn23)cc1 |  |  | > 100 | > 100 | > 100 | 
26 | C1CCC(c2nnc3nnc(N4CCCC4)nn23)CC1 |  | 37.7 | 23.8 | 22 | 37.7 | 
27 | Cc1ccc(-c2nnc3nnc(-n4nc(C)cc4C)nn23)cc1 |  | 36.2 | > 100 | 7.54 | 36.2 | 
28 | Clc1ccc(-c2nnc3nnc(N4CCCC4)nn23)c(Cl)c1 |  | 19.6 | 8.65 | 8.06 | 19.6 | 
29 | c1ccc(-c2nnc3nnc(N4CCCC4)nn23)cc1 |  |  | > 100 | > 100 | > 100 | Insoluble
30 | CCCCCc1nnc2nnc(-n3nc(C)cc3C)nn12 |  | 22 | 1.05 | 2.79 | 22 | 
31 | Cc1cc(C)n(-c2nnc3nnc(-c4ccccc4Cl)n3n2)n1 |  | 19.5 | 73.6 | 3.21 | 19.5 | 
32 | COc1ccc(-c2nnc3nnc(N4CCOCC4)nn23)cc1 |  |  | 39 | 8.94 | > 100 | 
33 | Cc1cc(C)n(-c2nnc3nnc(-c4ccccc4)n3n2)n1 |  | 13.6 | 12.1 | 23.6 | 13.7 | 
34 | Clc1ccccc1-c1nnc2nnc(N3CCCC3)nn12 |  | 29.6 | 2.66 | 2.99 | 29.6 | 
35 | c1ccc(-c2nnc3nnc(N4CCOCC4)nn23)cc1 |  | 8.87 | 30.4 | 5.65 | 8.87 | 
36 | Fc1ccc(-c2nnc3nnc(N4CCOCC4)nn23)cc1 |  | 32.9 | 28.9 | 4.65 | 32.9 | 
37 | Cc1cc(C)n(-c2nnc3nnc(C)n3n2)n1 |  | 17.8 | 0.43 | 2.61 | 17.8 | 
38 | Cc1nnc2nnc(N3CCOCC3)nn12 |  | 38.9 | 4.52 | 5.88 | 38.9 | 
39 | O=[N+]([O-])c1ccc(-c2nnc3nnc(N4CCOCC4)nn23)cc1 |  |  | 5.79 | > 100 | > 100 | 
40 | CC(C)(C)c1nnc2nnc(N3CCCC3)nn12 |  | 55 | > 100 | 12.5 | 55 | 

Row | SMILES | IC50 (MCF-7 (Homo sapiens); read-out: IC50) [µM] | IC50 (MCF-7 (Homo sapiens); read-out: pIC50 (converted)) [µM] | IC50 [1] [µM] | IC50 [2] [µM] | IC50 [3] [µM] | solubility [4]
41 | Cc1cc(C)n(-c2nnc3nnc(C(C)C)n3n2)n1 |  | 33.7 | 1.16 | 2.32 | 33.7 | 
42 | Clc1ccc(-c2nnc3nnc(N4CCOCC4)nn23)c(Cl)c1 |  | 19.3 | 4.84 | 1.71 | 19.3 | 
43 | Cc1cc(C)n(-c2nnc3nnc(C(C)(C)C)n3n2)n1 |  | 17.6 | 0.73 | 0.73 | 17.6 | 
44 | Fc1ccc(-c2nnc3nnc(N4CCCC4)nn23)cc1 |  |  | 4.56 | > 100 | > 100 | Insoluble
45 | Clc1ccccc1-c1nnc2nnc(N3CCOCC3)nn12 |  | 14.9 | 13.2 | 3.15 | 14.9 | 
46 | CC(C)c1nnc2nnc(N3CCCC3)nn12 |  | 46.8 | 71.2 | 3.43 | 46.8 | 
47 | Clc1ccc(-c2nnc3nnc(N4CCOCC4)nn23)cc1 |  | 13.1 | 0.63 | 4.09 | 13.1 | 
48 | Cc1cc(C)n(-c2nnc3nnc(-c4ccc(Cl)cc4)n3n2)n1 |  | 5.57 | > 100 | 22.6 | 5.57 | 
49 | CCc1nnc2nnc(-n3nc(C)cc3C)nn12 |  | 36.1 | 0.82 | 1.64 | 36 | 
50 | Cc1cc(C)n(-c2nnc3nnc(C4CCCCC4)n3n2)n1 |  | 12.8 | 0.67 | 6.7 | 12.8 | 
51 | COc1ccc(-c2nnc3nnc(-n4nc(C)cc4C)nn23)cc1 |  | 16.7 | > 100 | 18.3 | 16.7 | 
52 | Cc1cc(C)n(-c2nnc3nnc(Cc4ccccc4)n3n2)n1 |  | 54.8 | 2.61 | 2.29 | 54.8 | 
53 | O=[N+]([O-])c1ccc(-c2nnc3nnc(N4CCCCC4)nn23)cc1 |  |  | 0.61 | > 100 | > 100 | 
54 | CCCCCc1nnc2nnc(N3CCCC3)nn12 |  | 42.9 | 42.5 | 27.9 | 42.9 | 
55 | COc1ccc(-c2nnc3nnc(N4CCCCC4)nn23)cc1 |  |  | 12.8 | > 100 | > 100 | 
56 | Cc1cc(C)n(-c2nnc3nnc(-c4ccc([N+](=O)[O-])cc4)n3n2)n1 |  | 6.85 | > 100 | 7.29 | 6.85 | 
57 | CCc1nnc2nnc(N3CCCC3)nn12 |  | 47 | 47 | 5.02 | 47 | 
58 | Fc1ccc(-c2nnc3nnc(N4CCCCC4)nn23)cc1 |  | 41.4 | 30.7 | 3.34 | 41.4 | 

— ChEMBL document CHEMBL3861987, “Synthesis, antitumor evaluation and 3D-QSAR studies of [1,2,4]triazolo[4,3-b][1,2,4,5]tetrazine derivatives” (Bioorg Med Chem Lett, 2016)
